Key:
[1] = tested on: Caco-2 cells; test: Imaging labile iron pools in hepcidin-stimulated Caco-2 cells; format: cell-based, human
Description: For kinetic experiment, Caco-2 cells (ATCC) were maintained in Dulbecco's minimal essential medium (DMEM, ATCC) supplemented with 10% fetal bovine serum (FBS, ATCC), 100 U/ml penicillin G, and 100 μg/ml streptomycin at 37° C. in a humid atmosphere of 5% CO2 atmosphere. The culture medium was replaced with a fresh medium every 2-3 days. After being nearly confluent, the cells were used for experiment.
The ability of NIRh-Fret to monitor the changes in cellular labile Fe^2+ stores triggered by hepcidin stimulation, a key iron regulatory hormone produced by the liver which controls iron homeostasis was studied (C. H. Park, et al., J. Biol. Chem., 2001, 276, 7806; G. Nicolas, et al, Blood Cells Mol. Dis., 2002, 29, 327; and T. Ganz, Blood, 2003, 102, 783). […] For Fe^2+ replete conditions, live Caco-2 cells were incubated with 100 μM of ferrous ammonium sulfate (Fe (NH4)2(SO4)2) at 37° C. for 6 h followed by washing with DMEM medium to remove excess Fe^2+ and then 10 μM of NIRh-Fret was added to the culture media and was incubated at 37° C. for 30 min. For hepcidin stimulated condition, Cells was treated first with 100 μM of ferrous ammonium sulfate (Fe (NH4)2(SO4)2) for 1 h, followed by addition of 0.5 μM hepcidin and then incubated for another 5 h.

[2] = Binding studies of sensor with Fe3+ (Job's plot, titration, EDTA reversibility)
Description: Job's method and UV-vis spectra were applied to study the binding stoichiometry between Rh-PK and Fe^3+ and monitored by the absorbance at 555 nm. […] The binding constant of this complex was calculated following a method reported previously (G. E. Tumambac, et al., Tetrahedron 2004, 60, 11293-11297), using absorption values at […] by the equations described below, and was determined to be 1.54×10^7 […].
The equations below was used to calculate the binding constants with stoichiometry of 1:1. L+S↔LS where L=sensor, S=Fe3+ and LS=sensor-Fe^3+ complex. The apparent binding constant is given by
[formula] Fe is the fraction of L that formed a complex, [LS]e is concentration at equilibrium, [L]0 is the initial concentration. Au, Am, and Ac are the absorbances of solutions of L (before any Fe^3+ was added), during the titration and at saturation, respectively. The concentration of free Fe^3+ at equilibrium, [S]e, is found with the following identity. [S]e=[S]o−[LS]e=[S]o−Fc[L]o The apparent binding constant K can then be calculated from
Reversibility experiments were carried out by adding EDTA to the complex in ACN/Tris-HCl buffer (10 mM, pH 7.3, v/v 3:1). […]
The stoichiometry of RhHPA-Fe^3+ was measured using Job's plot and mole ratio plots methods. B. Valeur, Molecular Fluorescence: Principles and Applications, Wiley-VCH. […] To determine the binding constant of chemosensor, a fluorescence titration of different amounts of Fe^3+ into the acetonitrile solution of sensor was carried out. […] The determination of the binding constant of RhHPA was calculated using the following equation: F−Fmin=[…](Fmax−Fmin)/Kd where F is the observed fluorescence, Fmax is the maximum fluorescence for the RhHPA-Fe^3+ complex at concentration of the equal reacted between sensor and metal cation, Fmin is the fluorescence intensity for occurring RhHPA-Fe^3+.
Absorption enhancement observation at 558 nm was plotted against the molar value of the [Fe^3+]/[Fe^3+]+RhHPA and [Fe^3+]/RhHPA. […] Binding constant of fluorescent sensor “RhHPA” was calculated and it was found as K=1.27×10^7 M^−1. […]

SMILES	fluorescence of cells with sensor only ([1]; 10 μM NIRh-Fret)	fluorescence of hepcidin-treated, iron supplemented cells versus Fe^2+ supplementation only ([1]; 100 μM ferrous ammonium sulfate 1 h, then 0.5 μM hepcidin 5 h)	fluorescence after Fe^2+, hepcidin and Bpy ([1]; 40 min 1 mM Bpy, versus Fe^2+ supplementation only)	binding constant ([2]; 1:1 Fe^3+-Rh-PK complex, from absorption titration)	apparent binding constant ([2]; 1:1 sensor-Fe^3+ complex, ACN/Tris-HCl buffer pH 7.3)
CCN(CC)c1ccc2c(c1)OC1=C(CCC/C1=C\C=C1\N(C)c3ccccc3C1(C)C)C21c2ccccc2C(=O)N1/N=C\C=C\c1ccc(N(C)C)cc1 (centres unmarked) [NIRh-Fret, (E)-6′-(diethylamino)-2-(((1Z,2E)-3-(4-(dimethylamino)phenyl)allylidene)amino)-4′-(2-((E)-1,3,3-trimethylindolin-2-ylidene)ethylidene)-1′,2′,3′,4′-tetrahydrospiro[isoindoline-1,9′-xanthen]-3-one]	weak fluorescence	significant increase in fluorescent signals	decrease in fluorescence signal		
CCN(CC)c1ccc2c(c1)Oc1cc(N(CC)CC)ccc1C21c2ccccc2C(=O)N1CC/N=C(\C)c1cccc(C(C)=O)n1 [Rh-PK, (E)-2-(2-((1-(6-acetylpyridin-2-yl)ethylidene)amino)ethyl)-3′,6′-bis(diethylamino)spiro[isoindoline-1,9′-xanthen]-3-one]				1.54e+07 M⁻¹	1.54e+07 M⁻¹

Reference: patent publication US11685741B2, “Fluorescent probes” (University of Massachusetts, priority 2017, dated 2023)
